# According to patent publication US20020009799A1, “Isolation and purification of nucleic acids” (priority 1999, published 2002):
# Assays:
# [1] = system: E. coli cells; test: Lysis of suspended bacterial cells by lysis buffers with 0.1 to 1% SDS; assay type: cell-based; details: lysis buffer with 1% OT-100, 0.2M NaOH
# Description: 0.25 grams of pelleted E. coli cells (the cells contained an 8.165 kB plasmid called VR1412) were suspended in the suspension buffer from a Concert Plasmid DNA Purification Kit (Life Technologies, Inc., Bethesda, Md.). In place of the lysis buffer provided in the Concert Plasmid DNA Purification Kit (i.e., 1% SDS in 200 mM NaOH), a series of ten different lysis buffers were evaluated. Each lysis buffer included 1% OT-100 (a hydrophobic surfactant), 0.2M NaOH and from 0.1 to 1% SDS. The lysis buffers were used to lyse the suspended bacterial cells, and the lysed suspension was then neutralized with the neutralization buffer provided in the Concert Plasmid DNA Purification Kit. The resulting plasmid DNA preparation was precipitated by the addition of isopropanol (IPA) followed by centrifugation.
# The best result was obtained with 1% OT-100 and 0.4% SDS, that combined a relatively low endotoxin (LAL) level and a high plasmid concentration.
# [2] = in water; cited from earlier work
# [3] = bracketed value; cited from earlier work
molecule,measurement,setting,value
"CCCCCCCCCCCCOS(=O)(=O)[O-].[Na+] [SDS, Sodium dodecyl sulfate]",minimum concentration of SDS required to achieve most effective bacterial lysis,[1],0.4%
"CCCCCCCCCCCCCOC(=O)CC(C(=O)OCCCCCCCCCCCCC)S(=O)(=O)O.[Na] (stereo not drawn) [TR-70, sodium bistridecyl sulfosuccinate]",Solubility,[2],0.15%
Triton ® X-100,Dynamic Surface Tension [6 bubbles/sec],[3],— (42.2) dynes/cm
